In patent US20250084074A1, “SUBSTITUTED HETEROCYCLES AS HSET INHIBITORS” (MERCK PATENT GMBH, priority 2022, published 2025):

The molecules below were run against HSET full length protein (Homo sapiens (Human), UniProt Q9BW19) (assay: HSET ADP-Glo Assay S - 3 μM ATP). Settings: 5 nM HSET, 70 μg/mL microtubule, 80 min at rt, read-out: COMBINED HSET ADP GLO IC50.
Format: biochemical
How it was run: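 ADP-Glo luminescence read-out: ATPase reaction at 3 μM ATP, 80 min at room temperature, after a 10 min compound preincubation. Enzyme was full-length human HSET at 5 nM, stimulated by 70 μg/mL paclitaxel-stabilised bovine microtubules in HEPES pH 6.8 buffer with MgCl2, EGTA, Triton X-100 and DTT.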

Chain of HSET full length protein (Q9BW19 whole entry): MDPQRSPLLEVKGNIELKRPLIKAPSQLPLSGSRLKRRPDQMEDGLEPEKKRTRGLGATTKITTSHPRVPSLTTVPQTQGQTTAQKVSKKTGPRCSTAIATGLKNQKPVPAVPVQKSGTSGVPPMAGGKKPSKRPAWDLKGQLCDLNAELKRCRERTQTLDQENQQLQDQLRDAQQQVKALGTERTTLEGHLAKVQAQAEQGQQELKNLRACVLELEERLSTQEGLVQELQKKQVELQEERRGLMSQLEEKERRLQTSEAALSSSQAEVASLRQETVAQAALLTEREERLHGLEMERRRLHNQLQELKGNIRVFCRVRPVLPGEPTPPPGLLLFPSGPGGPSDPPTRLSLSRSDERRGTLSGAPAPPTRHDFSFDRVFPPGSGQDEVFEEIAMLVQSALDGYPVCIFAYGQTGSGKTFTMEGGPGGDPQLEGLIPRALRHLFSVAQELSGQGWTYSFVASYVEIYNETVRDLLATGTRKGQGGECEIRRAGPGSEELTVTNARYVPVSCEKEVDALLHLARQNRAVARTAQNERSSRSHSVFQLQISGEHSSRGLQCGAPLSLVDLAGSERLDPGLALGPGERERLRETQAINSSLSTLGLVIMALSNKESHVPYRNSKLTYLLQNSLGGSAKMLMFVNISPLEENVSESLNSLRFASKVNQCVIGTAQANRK

Row | Structure (SMILES) | IC50 [nM]
1 | CCCOC(=O)c1sc(NC(=O)C[C@H](CCN(C)C)NC(=O)c2cccc(-c3noc(C)n3)c2)nc1C [Example 162, Propyl (S)-2-(5-(dimethylamino)-3-(3-(5-methyl-1,2,4-oxadiazol-3-yl)benzamido)pentanamido)-4-methylthiazole-5-carboxylate] | 558
2 | COC1(c2cnc(NC(=O)CCNc3nccc4ccc(-c5noc(C)n5)cc34)s2)CCCCC1 [Example 87] | 9380
3 | Cc1nc(-c2ccc3ccnc(N[C@H]4C[C@@H](C(=O)Nc5nc(C)c(C(=O)O[C@H](C)C(F)(F)F)s5)C4)c3c2)no1 (stereo in doubt) [Example 114, [(1 R)-2,2,2-trifluoro-1-methyl-ethyl]4-methyl-2-[[3-[[7-(5-methyl-1,2,4-oxadiazol-3-yl)-1-isoquinolyl]amino]cyclobutanecarbonyl]amino]thiazole-5-carboxylate] | 17
4 | CCCOC(=O)c1sc(NC(=O)CC2(NC(=O)c3cc(Cl)cc(-c4noc(C)n4)c3)CCN(C)CC2)nc1C [Example 144, Propyl-2-(2-(4-(3-chloro-5-(5-methyl-1,2,4-oxadiazol-3-yl)benzamido)-1-methylpiperidin-4-yl)acetamido)-4-methylthiazole-5-carboxylate] | 9200
5 | CNCCC[C@@H](CC(=O)Nc1nc(C)c(C(=O)OC(C)C)s1)Nc1nccc2ccc(-c3noc(C)n3)cc12 [Example 167, Isopropyl (S)-4-methyl-2-(3-((7-(5-methyl-1,2,4-oxadiazol-3-yl)isoquinolin-1-yl)amino)-6-(methylamino)hexanamido)thiazole-5-carboxylate] | 10
6 | Cc1nc(NC(=O)CCNC(=O)c2cccc(-c3nnn(C)n3)c2)sc1C(C)(C)C [Example 41, N-[3-[(5-tert-butyl-4-methyl-thiazol-2-yl)amino]-3-oxo-propyl]-3-(2-methyltetrazol-5-yl)benzamide] | 184
7 | Cc1nc(-c2ccc3ccnc(N[C@H]4CCN(C(=O)c5cc(-c6ccccc6)n(C)n5)C4)c3c2)no1 [Example 248, (S)-(3-((7-(5-methyl-1,2,4-oxadiazol-3-yl)isoquinolin-1-yl)amino)pyrrolidin-1-yl)(1-methyl-5-phenyl-1 H-pyrazol-3-yl)methanone] | 4140
8 | CCCOC(=O)c1sc(C(=O)N(C)CCNc2nccc3ccc(-c4noc(C)n4)cc23)nc1C [Example 74, Propyl 4-methyl-2-(methyl(2-((7-(5-methyl-1,2,4-oxadiazol-3-yl)isoquinolin-1-yl)amino)ethyl)carbamoyl)thiazole-5-carboxylate] | 272
9 | Cc1nc(-c2ccc3ccnc(N[C@H]4C[C@@H](C(=O)Nc5nc(C)c(C(C)(C)C)s5)C4)c3c2)no1 [Example 98, (1 s,3s)-N-(5-(tert-butyl)-4-methylthiazol-2-yl)-3-((7-(5-methyl-1,2,4-oxadiazol-3-yl)isoquinolin-1-yl)amino)cyclobutane-1-carboxamide] | 72
10 | CCCc1nc(-c2cc(NC(=O)[C@@H](O)CNc3nccc4ccc(-c5noc(C)n5)cc34)nn2C)no1 [Example 182, (S)-2-hydroxy-3-((7-(5-methyl-1,2,4-oxadiazol-3-yl)isoquinolin-1-yl)amino)-N-(1-methyl-5-(5-propyl-1,2,4-oxadiazol-3-yl)-1 H-pyrazol-3-yl)propenamide] | 57
11 | Cc1nc(-c2ccc3ccnc(N[C@H]4C[C@@H](C(=O)Nc5ncc(C(F)(F)C(F)(F)F)s5)C4)c3c2)no1 [Example 96, 3-[[7-(5-methyl-1,2,4-oxadiazol-3-yl)-1-isoquinolyl]amino]-N-[5-(1,1,2,2,2-pentafluoroethyl)thiazol-2-yl]cyclobutanecarboxamide] | 2190
12 | Cc1nc(-c2ccc3ccnc(N[C@H]4C[C@@H](C(=O)Nc5cc(C(C)(C)C)on5)C4)c3c2)no1 [Example 100, (1 s,3s)-N-(5-(tert-butyl)isoxazol-3-yl)-3-((7-(5-methyl-1,2,4-oxadiazol-3-yl)isoquinolin-1-yl)amino)cyclobutane-1-carboxamide] | 836
13 | Cc1ccc2ccnc(NC[C@@H](O)C(=O)Nc3nc(C)c(C(=O)OC(C)(C)C)s3)c2c1 [Example 184, tert-Butyl (R)-2-(2-hydroxy-3-((7-methylisoquinolin-1-yl)amino)propanamido)-4-methylthiazole-5-carboxylate] | 34
14 | CCCOC(=O)c1sc(NC(=O)C[C@@H](CCCNC)NC(=O)c2cccc(-c3noc(C)n3)c2)nc1C [Example 153, Propyl-(R)-4-methyl-2-(3-(3-(5-methyl-1,2,4-oxadiazol-3-yl)benzamido)-6-(methylamino)hexanamido)thiazole-5-carboxylate] | 285
15 | CCc1cc(NC(=O)CCNc2nccc3ccc(-c4noc(C)n4)cc23)no1 [Example 79, N-(5-ethylisoxazol-3-yl)-3-((7-(5-methyl-1,2,4-oxadiazol-3-yl)isoquinolin-1-yl)amino)propanamide] | 4340
16 | CCOC(=O)c1sc(NC(=O)CCNC(=O)c2cccc(-c3ncon3)c2)nc1C [Example 23, Ethyl 2-(3-(3-(1,2,4-oxadiazol-3-yl)benzamido)propanamido)-4-methylthiazole-5-carboxylate] | 146
17 | CCOC(=O)c1sc(N(C)C(=O)CCNC(=O)c2cccc(-c3noc(C)n3)c2)nc1C [Example 219, Ethyl 4-methyl-2-(N-methyl-3-(3-(5-methyl-1,2,4-oxadiazol-3-yl)benzamido)propanamido)thiazole-5-carboxylate] | 89
18 | Cc1nc(-c2ccc3ccnc(NC4CN(C(=O)N(C)c5nc(C)c(C(=O)OC(C)(C)C)s5)C4)c3c2)no1 [Example 231, tert-Butyl 4-methyl-2-[methyl-[3-[[7-(5-methyl-1,2,4-oxadiazol-3-yl)-1-isoquinolyl]amino]azetidine-1-carbonyl]amino]thiazole-5-carboxylate] | 5
19 | Cc1nc(-c2ccc3ccnc(NCCC(=O)Nc4cn(C(=O)OC(C)C)c(C)n4)c3c2)no1 [Example 258, Propan-2-yl 2-methyl-4-(3-{[7-(5-methyl-1,2,4-oxadiazol-3-yl)isoquinolin-1-yl]amino}propanamido)-1 H-imidazole-1-carboxylate] | 207
20 | CCOC(=O)c1sc(NC(=O)CCNC(=O)c2cccc(C)c2)nc1C [Example 1, Ethyl 4-methyl-2-(3-(3-methylbenzamido)propanamido)thiazole-5-carboxylate] | 2730
21 | CCc1nc(NC(=O)CCNc2nccc3ccc(-c4noc(C)n4)cc23)sc1C(C)(C)C [Example 81, N-(5-(tert-butyl)-4-ethylthiazol-2-yl)-3-((7-(5-methyl-1,2,4-oxadiazol-3-yl)isoquinolin-1-yl)amino)propanamide] | 21
22 | Cc1nc(NC(=O)C[C@H](CC#N)NC(=O)c2cccc(C#N)c2)sc1C(=O)OC(C)C [Example 207, Propan-2-yl 2-[(3S)-4-cyano-3-[(3-cyanophenyl)formamido]butan-amido]-4-methyl-1,3-thiazole-5-carboxylate] | 590
23 | Cc1nc(-c2ccc3ccnc(N[C@H]4CCN(C(=O)c5cnc[nH]5)C4)c3c2)no1 [Example 250, (S)-(1 H-imidazol-5-yl)(3-((7-(5-methyl-1,2,4-oxadiazol-3-yl)isoquinolin-1-yl)amino)pyrrolidin-1-yl)methanone] | 9460
24 | CCOC(=O)c1sc(NC(=O)CC(CC)NC(=O)c2cccc(-c3noc(C)n3)c2)nc1C (stereo not drawn) [Example 215] | 84
